Data set [1] is described as follows: Pharmacokinetics in whole blood after a single oral dose (HPLC-MS/MS). It is filed as in vivo, CD1 IGS mice. The following applies: single oral 10 mg/kg. On the procedure:
Six CD1 IGS mice were administered orally with the compound PA96 in Tween 80 at doses of 10 mg/kg. Blood was collected from the tail after the amputation of a small distal piece. Time points were 5, 10, 30, 60, and 120 min after injection. Experimental blood samples were transferred into tubes for the precipitation of blood proteins with a mixture of zinc sulfate and methanol (2:8, v/v). A set of calibrators were prepared in advance, followed by their preparation protocol, and analyzed by HPLC-MS/MS for standard comparison. The calibration curve was built in the range of 25–2000 ng/mL. According to the signal-concentration profile, the content of PA96 in the experimental blood samples at each time point was calculated.
The stock solution of PA96 (1.0 mg/mL) was prepared by dissolving an accurately weighed amount of the substance in 100% methanol. To obtain a set of working solutions with concentrations of 0.01, 0.05, 0.1, 0.25, 0.5, 1, 2.5, 5, 7.5, 10, 15, and 20 µg/mL, the stock solution of PA96 was diluted with methanol. Calibration standards (calibrators) were prepared by mixing 10 μL of each individual working solution and 90 μL of mouse whole blood. Samples were stirred gently on an orbital shaker at 1000 rpm and left at 4 °C for 1 h for equilibration. The stock solution of IS with a concentration of 1.0 mg/mL was prepared by dissolving a weighed amount of 2-adamantylamine hydrochloride in pure methanol. The solution for the protein precipitation procedure was a mixture of 2 parts of 0.2 M aqueous solutions of zinc sulfate per 8 parts of a solution of IS in methanol with a concentration of 10 µg/mL. All solutions were stored at −18 °C and brought to their ambient temperature before use.
An aliquot of 10 µL of each whole blood sample was placed into an Eppendorf microtube (1.5 mL), then the precipitation solution of 50 µL was added to each tube. All samples were vortexed for 20–30 s and then centrifuged (Eppendorf MiniSpin, Eppendorf, Germany) for 10 min at 13,400 rpm. The supernatant was transferred into a chromatographic vial and analyzed.
The LC-MS/MS analysis was performed using an LC-20AD Prominence chromatograph equipped with an autosampler thermostated at +10 °C (Shimadzu, Japan) and a 3200 QTRAP mass spectrometer equipped with an ESI source (AB SCIEX, USA). Separation was achieved on a ProntoSil-120-5-C18 AQ column (2.0 × 75 mm, 5 μm particles, (EcoNova, Novosibirsk, Russia)) thermostated at +35 °C. The mobile phase was composed of water containing 0.1% formic acid (eluent A) and methanol containing 0.1% formic acid (eluent B). The gradient elution program was as follows: 0 min-10% (B); 0.5 min-10% (B); 7 min-98% (B); 9 min-98% (B); the flow rate was 200 μL/min.
The mass spectrometer was operated using multiple reaction monitoring (MRM) in positive ion mode. Ionization was conducted by applying a voltage of 5500 V, and the source temperature was set at +350 °C. For the analyte and IS, the optimized source parameters, viz. CUR (curtain gas), GS1 (Gas 1), and GS2 (Gas 2) were set at 20 psi. The CAD (collisionally activated dissociation) gas was nitrogen, and the parameter was set as high. The parameters of PA96, viz. MRM transitions, declustering potentials (DP), collision energies (CE), and collision cell exit potentials (CXP) are presented in Table 3. The dwell time was 100 msec. Analyst 1.6.2 software (AB SCIEX, USA) was used for instrument control and data acquisition, and MultiQuant 2.1 software (AB SCIEX, USA) was used for quantification. To calculate the main pharmacokinetic parameters, the Microsoft Excel–PKSolver was used.

Data set [2] has as its system naïve primary midbrain dopamine neurons. Put plainly: Survival of naïve cultured dopamine neurons (TH-positive cell count). It is filed as cell-based, mouse. Here is the method:
We developed a compound library containing 20 diol derivatives and screened them on cultured primary DA neurons (Supplementary Materials, Table S1). Compounds were taken at a dose of 0.1 and 1 μM (based on effective doses for the epoxydiol). Based on the screening results, we selected four compounds and tested them in a naïve and MPP^+-treated (1-methyl-4-phenylpyridinium (MPP^+), the neurotoxic metabolite of MPTP) DA culture at 1, 10, and 100 nM to select the compound with the lowest effective dose.
The survival of cultured mouse DA neurons was assessed as described before. Briefly, naïve or MPP^+ (dopaminergic selective neurotoxin)-challenged embryonic midbrain neurons were cultured in the presence or absence of a diol-like compound. The number of survived DA neurons was estimated after immunocytochemical staining with antibodies recognizing the key enzyme of dopamine synthesis—tyrosine hydroxylase.

Data set [3] concerns CD-1 female mice. Description: Maximum tolerated dose and LD50 (acute oral toxicity). It is filed as in vivo. On the procedure:
(§1) Healthy animals were randomly divided into groups of four males or four females each. After a 3–4 h starvation, animals were administered 100, 150, 200, or 500 mg/kg PA96 solution (prepared by dissolution in saline containing 0.5% Tween 80) or the vehicle […]. Food was provided for approximately 1–2 h after administration. All mice were continuously monitored for changes in weight, breathing, ptosis, gait disturbance, tremor, and mortality 1 h after administration of PA96 and every 6 h after that. The day of dosing was designated as day 0, and animals were observed until day 14. Each mouse was weighed on days 0, 1, 3, 7, and 14.
(§2) The arithmetic method of Kerber was used to determine the lethal dose fifty (LD50) that killed 50% of studied animals with PA96.
(§3) The LD50 value was determined according to the following equation [24]:LD50 = LD100 − ∑ (z × d)/m(1) where LD50—dose capable of killing 50% of animals; LD100—dose capable of killing 100% of animals; z—half the sum of the number of animals in the experiments with the test of two following doses; d—the difference between two successive doses of administrative PA96; m—total number of animals in each group.

Test in data set [4]: as above
The format is in vivo. The following applies: female, CD-1, mouse, in vivo, po. On the procedure: as §1, §2, §3

[5] abbreviates: CD1 IGS, mouse, whole blood, blood.

“And” between values parts separate entries of the source, which are not always exact repeats. Identical values can stand only once.

Usually half-life stands for how long it takes for the measured level to halve. Low values mean rapid decline, high ones slow decline. One may read the Cmax as the highest concentration seen after dosing. The term Tmax denotes the time at which the peak concentration occurs. Broadly, the LD50 is the dose at which mortality reaches 50%. Lower therefore signals a more toxic substance. For orientation: MTD means the highest dose tested that stayed within the study's limit of toxicity. Read a high MTD as a wide tolerated range.

`C=C(C)[C@@H]1CC=C(C)[C@@H](Sc2nc[nH]n2)[C@@H]1O` [PA96, (1R,2R,6S)-2-(1H-1,2,4-triazol-3-ylthio)-3-methyl-6-(prop-1-en-2-yl)cyclohex-3-enol]: in data set [1] (CD1 IGS, mouse, whole blood, po, 10 mg/kg, blood), the half-life was ~24 min. Moreover, in data set [1] (setting [5]), the AUC0-t worked out at 278 ng·h/mL, the Cmax was 550 ng/mL and the time of peak concentration (Tmax) was 5 min. For the same molecule, the AUC(0-inf) in data set [1] (CD1 IGS, mouse, whole blood, blood, read-out: AUC0-inf_obs) was found to be 290 ng·h/mL. Further, the MRT inf in data set [1] (CD1 IGS, mouse, whole blood, blood, read-out: MRT0-inf_obs (converted)) is 29.7 min. For the same molecule, in data set [1] (blood), the Cl/F_obs result is on record as “(5.8 ± 0.6) × 10^−4 (mg/kg)/(ng/mL)/min” and the Vz/F_obs result was “(18.9 ± 0.6) × 10^−3 (ml/kg)/(ng/mL)”. In addition, the “time at which the minimum detectable concentration in blood was observed” value in data set [1] is on record as 1 h. Besides, in data set [2] (PA96 vs epoxydiol), the “potency relative to epoxydiol in the survival assay” value is on record as “up to 100 times”. Moreover, the “effective concentration in survival assay for DA neurons” value in data set [2] (cultured DA neurons) was 1 nM and 1−10 nM. In addition, in data set [2] (naive neurons and with MPP+), the “cytotoxicity in in vitro experiments” value is on record as “neither cytotoxic effect in naive neurons nor increased cytotoxicity”. Also, the “number of TH-positive neurons greater than in vehicle-treated wells” value in data set [2] (naïve neurons, 1 nM, p = 0.04) is 40%. Also, the “MTD relative to the effective dose” value in data set [3] (female, CD-1, mouse, in vivo, 14 days) was determined as 100 fold. Also, the “dose at which abnormal clinical signs were observed (piloerection, decreased motor activity, ptosis, gait disturbance)” value in data set [3] (female, CD-1, mouse, in vivo, po, 14 days) is listed as ≥ 150 mg/kg. Moreover, in data set [3] (mouse, in vivo), the hazard category result is on record as “Category III (slightly hazardous)”. Besides, in data set [3] (therapeutic dose vs LD50), the “therapeutic dose lower than LD50” value is on record as “at least 100 times”. Besides, in data set [4], the 50% lethal dose (LD50) at 14 days was found to be 234 mg/kg and the maximum tolerated dose (MTD) at 14 days is 100 mg/kg.

(Values after publication PMC9738927, “A Newly Identified Monoterpenoid-Based Small Molecule Able to Support the Survival of Primary Cultured Dopamine Neurons and Alleviate MPTP-Induced Toxicity In Vivo” (Molecules, 2022).)
